# Assay results: patent publication US9549558B2, “Herbicidal azines” (BASF SE, priority 2012, dated 2017)
# Key:
# Type in all cases: in vivo
# [1] = tested on: CAPBP (Capsella bursa-pastoris); assay: greenhouse pre-emergence herbicidal test; details: CAPBP
# Source text: (§1) The culture containers used were plastic flowerpots containing loamy sand with approximately 3.0% of humus as the substrate. The seeds of the test plants were sown separately for each species.
# (§2) For the pre-emergence treatment, the active ingredients, which had been suspended or emulsified in water, were applied directly after sowing by means of finely distributing nozzles. The containers were irrigated gently to promote germination and growth and subsequently covered with transparent plastic hoods until the plants had rooted. This cover caused uniform germination of the test plants, unless this had been impaired by the active ingredients.
# (§3) Depending on the species, the plants were kept at 10-25° C. or 20-35° C., respectively.
# (§4) The test period extended over 2 to 4 weeks. During this time, the plants were tended, and their response to the individual treatments was evaluated.
# (§5) Evaluation was carried out using a scale from 0 to 100. 100 means no emergence of the plants, or complete destruction of at least the aerial moieties, and 0 means no damage, or normal course of growth. A moderate herbicidal activity is given at values of at least 60, a good herbicidal activity is given at values of at least 70, and a very good herbicidal activity is given at values of at least 85.
# (§6) The plants used in the greenhouse experiments were of the following species: […]
# [2] = tested on: VIOAR (Viola arvensis); assay: greenhouse pre-emergence herbicidal test
# Source text: as §1, §2, §3, §4, §5, §6
# [3] = tested on: STEME (Stellaria media); assay: greenhouse pre-emergence herbicidal test
# Source text: as §1, §2, §3, §4, §5, §6
# [4] = tested on: AMARE (Amaranthus retroflexus); assay: greenhouse post-emergence herbicidal test
# Source text: as §1
# (§7) For the post-emergence treatment, the test plants were first grown to a height of 3 to 15 cm, depending on the plant habit, and only then treated with the active ingredients which had been suspended or emulsified in water. For this purpose, the test plants were either sown directly and grown in the same containers, or they were first grown separately as seedlings and transplanted into the test containers a few days prior to treatment.
# as §3, §4, §5, §6
# [5] = tested on: CHEAL (Chenopodium album); assay: greenhouse post-emergence herbicidal test
# Source text: as §1, §7, §3, §4, §5, §6
# [6] = tested on: ABUTH (Abutilon theophrasti); assay: greenhouse post-emergence herbicidal test; details: 1000 g/ha
# Source text: as §1, §7, §3, §4, §5, §6
compound,measurement,setting,value
CC(C)(F)c1nc(N)nc(Nc2ccc(F)c(F)c2F)n1 [Example 26],herbicidal activity,[1]; 0.125 kg/ha,good (a good herbicidal activity is given at values of at least 70)
same,herbicidal activity,[2]; 0.125 kg/ha,very good (a very good herbicidal activity is given at values of at least 85)
Nc1nc(Nc2c(F)c(F)c(Br)c(F)c2F)nc(C2CCCC2)n1 [Example 210],herbicidal activity,[1]; 250 g/ha,very good (a very good herbicidal activity is given at values of at least 85)
same,herbicidal activity,[3]; 250 g/ha,very good (a very good herbicidal activity is given at values of at least 85)
same,herbicidal activity,[2]; 250 g/ha,very good (a very good herbicidal activity is given at values of at least 85)
CC(C)(Cl)c1nc(N)nc(Nc2c(F)ccc(Cl)c2F)n1 [Example 108],herbicidal activity,[1]; 250 g/ha,very good (a very good herbicidal activity is given at values of at least 85)
same,herbicidal activity,[3]; 250 g/ha,very good (a very good herbicidal activity is given at values of at least 85)
same,herbicidal activity,[2]; 250 g/ha,very good (a very good herbicidal activity is given at values of at least 85)
CC(F)c1nc(N)nc(Nc2c(F)cccc2F)n1 (stereo not shown) [Example 12],herbicidal activity,[1]; 0.125 kg/ha,very good (a very good herbicidal activity is given at values of at least 85)
same,herbicidal activity,[2]; 0.125 kg/ha,very good (a very good herbicidal activity is given at values of at least 85)
CC(F)c1nc(N)nc(Nc2c(F)cc(Br)cc2F)n1 (stereo not shown) [Example 19],herbicidal activity,[2]; 0.125 kg/ha,good (a good herbicidal activity is given at values of at least 70)
CC(C)(F)c1nc(N)nc(Nc2c(F)cccc2C#N)n1 [Example 38],herbicidal activity,[4]; 0.125 kg/ha,very good (a very good herbicidal activity is given at values of at least 85)
same,herbicidal activity,[5]; 0.125 kg/ha,very good (a very good herbicidal activity is given at values of at least 85)
Nc1nc(C2CC2)nc(N(C(=O)C2CC2)c2c(F)c(F)cc(F)c2F)n1 [Example 285],herbicidal activity,[4]; 62 g/ha,very good (a very good herbicidal activity is given at values of at least 85)
same,herbicidal activity,[5]; 62 g/ha,good (a good herbicidal activity is given at values of at least 70)
CC(C)(F)c1nc(N)nc(Nc2cc(F)cc(F)c2)n1 [Example 25],herbicidal activity,[2]; 0.125 kg/ha,very good (a very good herbicidal activity is given at values of at least 85)
CC(C)(C)c1nc(N)nc(Nc2c(F)ccc(Cl)c2F)n1 [Example 81],herbicidal activity,[1]; 125 g/ha,very good (a very good herbicidal activity is given at values of at least 85)
same,herbicidal activity,[3]; 125 g/ha,very good (a very good herbicidal activity is given at values of at least 85)
same,herbicidal activity,[2]; 125 g/ha,very good (a very good herbicidal activity is given at values of at least 85)
Cc1ccc(F)c(Nc2nc(N)nc(C(C)(C)F)n2)c1F [Example 40],herbicidal activity,[4]; 0.031 kg/ha,very good (a very good herbicidal activity is given at values of at least 85)
same,herbicidal activity,[5]; 0.031 kg/ha,very good (a very good herbicidal activity is given at values of at least 85)
CC(C)(F)c1nc(N)nc(Nc2ccc(F)cc2F)n1 [Example 22],herbicidal activity,[2]; 0.125 kg/ha,good (a good herbicidal activity is given at values of at least 70)
Nc1nc(Nc2c(F)ccc(Cl)c2F)nc(C(F)(F)F)n1 [Example 126],herbicidal activity,[6],good (a good herbicidal activity is given at values of at least 70)
same,herbicidal activity,[4]; 1000 g/ha,very good (a very good herbicidal activity is given at values of at least 85)
CC(F)(F)c1nc(N)nc(Nc2c(F)cc(F)cc2F)n1 [Example 138],herbicidal activity,[1]; 125 g/ha,very good (a very good herbicidal activity is given at values of at least 85)
same,herbicidal activity,[3]; 125 g/ha,very good (a very good herbicidal activity is given at values of at least 85)
same,herbicidal activity,[2]; 125 g/ha,very good (a very good herbicidal activity is given at values of at least 85)
CC(C)(F)c1nc(N)nc(Nc2cc(F)c(F)c(F)c2)n1 [Example 29],herbicidal activity,[2]; 0.125 kg/ha,moderate (A moderate herbicidal activity is given at values of at least 60)
Nc1nc(Nc2c(F)c(F)c(Br)c(F)c2F)nc(C2CCCCC2)n1 [Example 209],herbicidal activity,[1]; 250 g/ha,good (a good herbicidal activity is given at values of at least 70)
same,herbicidal activity,[3]; 250 g/ha,very good (a very good herbicidal activity is given at values of at least 85)
same,herbicidal activity,[2]; 250 g/ha,good (a good herbicidal activity is given at values of at least 70)
